Measured values as given in US20240197911A1, “Oral Pharmaceutical Composition, Method for Fabricating Thereof, and Kit for Treating Cancer” (National Tsing Hua University, priority 2022, published 2024).

What was measured:
orthotopic PDAC mice = assay: Antitumor efficacy of different treatments; type: in vivo
Description: To evaluate the antitumor efficacy of different treatments, the orthotopic PDAC mice are randomly assigned to the following groups: untreated control group (hereinafter referred to as “Control”), orally administered β-glucan group (hereinafter referred to as “βGlus”), intravenous injected DOX group (hereinafter referred to as “DOX”), orally administered Comparative Example group (hereinafter referred to as “Comparative Example”), and orally administered Example 1 group (hereinafter referred to as “Example 1”). In the groups of DOX, Comparative Example and Example 1, the DOX content of each dose is 10 mg/kg, while in the groups of βGlus and Example 1, the content of β-glucan of each dose is 40 mg/kg. The body weight changes of the orthotopic PDAC mice are recorded every other day. On day 21, the orthotopic PDAC mice are euthanized and their tumors are retrieved for analysis.

RAW264.7 cells [1] = assay: Cytotoxicity on Mφ; type: cell-based, murine; details: different DOX concentrations, 24 hours
Description: The capacity of Mφ as a hitchhiking vehicle is strongly correlated with their viability following the uptake of drug-encapsulated particles. Therefore, the cytotoxicity of Example 1 on Mφ are further evaluated. The RAW264.7 cells are incubated with Comparative Example or Example 1 including different DOX concentrations for 24 hours, and the RAW264.7 cells treated with the same concentration of free DOX are used as Control (represents as “DOX”).

RAW264.7 cells [2] = assay: Cellular uptake and trafficking by Mφ in vitro (CLSM); type: cell-based, murine; details: 10 μg/mL DOX
Description: To investigate whether the oral pharmaceutical composition of the present disclosure can be phagocytosed and carried by Mφ, the cellular uptake and trafficking of free DOX, Comparative Example or Example 1 by Mφ in vitro are observed first. RAW264.7 cells, a murine Mφ cell line, are seeded in an eight-well chamber slide (ibidi) at a density of 5×10^4 cells per well and incubated overnight. The cells are then treated with each of the test samples at an equivalent dose of DOX (10 μg/mL). Following incubation for pre-determined periods (0, 2, 4, and 6 hours), test cells are washed with Dulbecco's phosphate-buffered saline (DPBS) and stained with LysoTracker™ Deep Red (Invitrogen) and Hoechst 33342 (Abcam) for 30 minutes in the incubator. The stained cells are then examined using confocal laser scanning microscopy (CLSM) (LSM 780, Carl Zeiss) to track the localization and accumulation of free DOX, the DOX fluorescent signal of Comparative Example or Example 1, and to determine the cell regulation process of free DOX, Comparative example and Example 1 in the RAW264.7 cells.

SMILES: COc1cccc2c1C(=O)c1c(O)c3c(c(O)c1C2=O)C[C@@](O)(C(=O)CO)C[C@@H]3O[C@H]1C[C@H](N)[C@H](O)[C@H](C)O1 [DOX, doxorubicin]
- tumor volume (orthotopic PDAC mice; day 21, three doses, DOX 10 mg/kg, β-glucan 40 mg/kg per dose, compared with Control): substantially reduces tumor volumes
- body weight (orthotopic PDAC mice; intravenous DOX 10 mg/kg per dose, P<0.05): serious loss of body weight
- cell viability (RAW264.7 cells [1]): decreases substantially in a dose-dependent manner
- accumulation of DOX fluorescence in the cell nuclei (RAW264.7 cells [2]): accumulated in their nuclei
